Laboratory results published in US20220184082A1, “CANCER THERAPY USING 3,5-DISUBSTITUTED BENZENE ALKYNYL COMPOUND AND PEMBROLIZUMAB” (TAIHO PHARMACEUTICAL CO., LTD., priority 2019, published 2022).

B1: vofatamab: an anti-FGFR3 antibody (antibody, chains of the INN, looked up, V domains shown)
VH: EVQLVESGGGLVQPGGSLRLSCAASGFTFTSTGISWVRQAPGKGLEWVGRIYPTSGSTNYADSVKGRFTISADTSKNTAYLQMNSLRAEDTAVYYCARTYGIYDLYVDYTEYVMDYWGQGTLVTVSS
VL: DIQMTQSPSSLSASVGDRVTITCRASQDVDTSLAWYKQKPGKAPKLLIYSASFLYSGVPSRFSGSGSGTDFTLTISSLQPEDFATYYCQQSTGHPQTFGQGTKVEIK

Legend:
[1] = tested on: mouse breast cancer cell line 4T1; conditions: 4T1-implanted BALB/cAJcl mouse; oral daily 14 days, 15 and 30 mg/kg/day; Day 15
Experimental: On the day following the final administration (Day 15), lymphocyte fractions were isolated from the tumor, spleen, and peripheral blood, and myeloid-derived suppressor cells (MDSCs) (CD11b^+/Gr-1^+ cells), CD4-positive T cells, and CD8-positive T cells were measured using a cell sorter.

[2] = tested on: urothelial cancer; conditions: cited from earlier work

Molecule | CD4-positive T cells in the peripheral blood lymphocyte fractions compared with the control [1] | CD8-positive T cells in the peripheral blood lymphocyte fractions compared with the control [1] | CD8-positive T cells in the spleen lymphocyte fractions compared with the control [1] | MDSCs in the peripheral blood lymphocyte fractions compared with the control [1] | Response by combined use with pembrolizumab ([2]; urothelial cancer patients without FGFR genetic aberration, combined with pembrolizumab) | Sensitivity state of the cancer to immune checkpoint inhibitors ([2]; urothelial cancer patients)
C=CC(=O)N1CC[C@H](n2nc(C#Cc3cc(OC)cc(OC)c3)c3c(N)ncnc32)C1 [compound 1, (S)-1-(3-(4-amino-3-((3,5-dimethoxyphenyl)ethynyl)-1H-pyrazolo[3,4-d]pyrimidin-1-yl)pyrrolidin-1-yl)prop-2-en-1-one] | tended to increase in a dose-dependent manner | tended to increase in a dose-dependent manner | tended to increase in a dose-dependent manner | tended to decrease in a dose-dependent manner |  | 
B1 |  |  |  |  | response by combined use with pembrolizumab is observed | change from a “cold” state (low sensitivity to immune checkpoint inhibitors) to a “hot” state (high sensitivity to immune checkpoint inhibitors)
